According to patent US20220047569A1, “METHOD AND COMPOUND FOR USE, IN TREATING AND/OR PREVENTING NETOSIS” (Jubilant EpiPad LLC, priority 2020, published 2022):

Assays:
[1] = system: silica induced lung fibrosis; experiment: Silica induced pro-fibrotic lung model; assay type: in vivo, C57BL/6 female mice; conditions: 50 mg/kg PO, BID, day 7 to 11, therapeutic; silica mice
Description: The instillation of silica into the murine lung results in the development of fibrotic nodules that resemble simple silicotic nodular fibrosis, which develop in humans following some occupational exposures to dust and particulate aerosols. Silica can be delivered to rodents via aerosolization, intratracheal administration or oropharyngeal aspiration. C57BL/6 female mice at an age of 6-8 weeks were instilled with silica particles (2.5 mg/mouse) by non-surgical intratracheal (IT) method. The day of silica instillation was defined as day 0. Test compound was administered twice daily and standard of care was dosed once daily from day 7 to 11 for therapeutic intervention. Animals were monitored and evaluated for their clinical signs and body weight loss. Animals were euthanized on day 11 and the lungs were weighed and biomarkers were analyzed in lung.

[2] = system: Bleomycin (BLM)-induced mice fibrosis; experiment: Bleomycin induced lung fibrosis model; assay type: in vivo, C57BL/6 male mice; conditions: 50 mg/kg, PO, BID
Source text: Bleomycin (BLM)-induced mice fibrosis is a well-established animal model used to study pathogenesis of lung fibrosis and to estimate the potential anti-fibrotic agents. C57BL/6 male mice at 6-8 weeks of age were purchased from vivo biotech India (under the license from Taconic). The procedures involving the care and use of animals in the study was reviewed and approved by the Institutional Animal Care and Use Committee (IAEC/JDC/2018-161R) prior to conduct. During the study, the care and use of animals was in accordance with the principles outlined in the Guide for the Care and Use of Laboratory Animals, 8th Edition, 2010 (National Research Council) and every effort was made to minimize suffering. The animals were acclimatized for 7 days prior to experimental use. Mice were caged with free access to food and fresh water in a temperature-controlled room (22° C.-24° C.) on a 12 h light/dark cycle. Pulmonary fibrosis was induced by invasive method in animals using single intra-tracheal administration of 50 μg bleomycin prepared in 50 μL of saline under isoflurane anaesthesia. […] Animals were monitored and evaluated for their body weight loss. […] Fibronectin was measured as a PD biomarker by RT-qPCR and fold change in mRNA level was calculated after normalizing to GAPDH. […] The Modified Ashcroft Index score was determined for the vehicle-treated control mice and the test compound treated mice.

[3] = system: Histone H3 Citrullination in Neutrophils; experiment: Citrullination ELISA (Citrullinated Histone H3) in calcium ionophore stimulated neutrophils; assay type: cell-based; conditions: Neutrophil; human neutrophils, 25 μM calcium ionophore, CitH3 ELISA
In short: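 Freshly isolated human donor neutrophils in RPMI with 2% BSA and 1 mM CaCl2 were pre-incubated 30 min with compound (10, 1, 0.1 μM), then stimulated 30 min with 25 μM calcium ionophore. After S7 nuclease digestion, lysates were assayed by citrullinated histone H3 ELISA (450 nm); IC50 from sigmoidal fits.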

IC50 [3]: 100 to 1000 nM
SMILES: N[C@@H]1CCCN(C(=O)c2cc3c4c(c2)nc(-c2cc5cccc(Cl)c5n2CC2CC2)n4CCO3)C1 [Compound 143, (R)-(3-aminopiperidin-1-yl)(2-(7-chloro-1-(cyclopropylmethyl)-1H-indol-2-yl)-3,4-dihydro-5-oxa-1,2a-diazaacenaphthylen-7-yl)methanone]
Fibronectin level [1]: significant decrease
Lung weight [1]: significant decrease
Lung weight ([2]; day 0 to 14, prophylactic): reduction in lung weight comparable to standard of care Nintedanib
Fibronectin mRNA ([2]; lung, RT-qPCR normalized to GAPDH): stronger reduction of fibronectin mRNA as compared to Nintedanib
